According to US20090016990A1, “Antimicrobial Compositions” (priority 2007, published 2009):

Tests used:
[1] = system: Pseudomonas aeruginosa ATCC 27853; assay: MBEC assay, biofilm inhibition (prevention of biofilm formation), MBEC bioFILM PA panel; assay type: cell-based; design: MBEC-Biofilm Inhibition, Without compound 9 / MBEC-Biofilm Inhibition, Without compound 6 / MBEC-Biofilm Inhibition, Without compound 2 / MBEC-Biofilm Inhibition, Without compound 7 / MBEC-Biofilm Inhibition, With 0.01% compound 7 in 5% EtOH/PBS / MBEC-Biofilm Inhibition, without salt of compound 2 / MBEC-Biofilm Inhibition, with 0.1% salt of compound 2 / MBEC-Biofilm Inhibition, without salt of compound 6: unit not given here; settings: for MBEC-Biofilm Inhibition, without salt of compound 2 / MBEC-Biofilm Inhibition, with 0.1% salt of compound 2: Table 9; for MBEC-Biofilm Inhibition, without salt of compound 2 / MBEC-Biofilm Inhibition, without salt of compound 6: antibiotic or antibiotic combination alone; for MBEC-Biofilm Inhibition, without salt of compound 2 / MBEC-Biofilm Inhibition, with 0.1% salt of compound 2 / MBEC-Biofilm Inhibition, without salt of compound 6 / MBEC-Biofilm Inhibition, with 0.1% salt of compound 6: value per component; for MBEC-Biofilm Inhibition, without salt of compound 2: separated by /; for MBEC-Biofilm Inhibition, with 0.1% salt of compound 2: antibiotic or combination plus 0.1% salt of compound 2; for MBEC-Biofilm Inhibition, without salt of compound 6 / MBEC-Biofilm Inhibition, with 0.1% salt of compound 6: Table 10; for MBEC-Biofilm Inhibition, with 0.1% salt of compound 6: antibiotic or combination plus 0.1% salt of compound 6; for MBEC-Biofilm Inhibition, Without compound 1 / MBEC-Biofilm Inhibition, Without compound 2 / MBEC-Biofilm Inhibition, Without compound 3 / MBEC-Biofilm Inhibition, Without compound 6 / MBEC-Biofilm Inhibition, Without compound 7 / MBEC-Biofilm Inhibition, Without compound 9: antibiotic alone
[2] = system: Pseudomonas aeruginosa ATCC 27853; assay: MBEC assay, biofilm elimination, MBEC bioFILM PA panel; assay type: cell-based; design: MBEC-Biofilm Elimination, Without compound 2 / MBEC-Biofilm Elimination, With 0.01% compound 2 in 5% EtOH/PBS / MBEC-Biofilm Elimination, Without compound 7 / MBEC-Biofilm Elimination, With 0.01% compound 7 in 5% EtOH/PBS / MBEC-Biofilm Elimination, Without compound 1 / MBEC-Biofilm Elimination, With 0.01% compound 1 in 5% EtOH/PBS / MBEC-Biofilm Elimination, without salt of compound 2 / MBEC-Biofilm Elimination, with 0.1% salt of compound 2: unit not given here; settings: for MBEC-Biofilm Elimination, without salt of compound 2 / MBEC-Biofilm Elimination, with 0.1% salt of compound 2: Table 9; for MBEC-Biofilm Elimination, without salt of compound 2 / MBEC-Biofilm Elimination, without salt of compound 6: antibiotic or antibiotic combination alone; for MBEC-Biofilm Elimination, without salt of compound 2 / MBEC-Biofilm Elimination, with 0.1% salt of compound 2 / MBEC-Biofilm Elimination, without salt of compound 6 / MBEC-Biofilm Elimination, with 0.1% salt of compound 6: value per component; for MBEC-Biofilm Elimination, with 0.1% salt of compound 2: antibiotic or combination plus 0.1% salt of compound 2; for MBEC-Biofilm Elimination, without salt of compound 6 / MBEC-Biofilm Elimination, with 0.1% salt of compound 6: Table 10; for MBEC-Biofilm Elimination, with 0.1% salt of compound 6: antibiotic or combination plus 0.1% salt of compound 6; for MBEC-Biofilm Elimination, Without compound 1 / MBEC-Biofilm Elimination, Without compound 2 / MBEC-Biofilm Elimination, Without compound 3 / MBEC-Biofilm Elimination, Without compound 6 / MBEC-Biofilm Elimination, Without compound 7 / MBEC-Biofilm Elimination, Without compound 9: antibiotic alone
[3] = with 0.01% compound 2 in 5% EtOH/PBS

Compound	MBEC-Biofilm Inhibition, without salt of compound 2 [1]	MBEC-Biofilm Inhibition, with 0.1% salt of compound 2 [1]	MBEC-Biofilm Inhibition, without salt of compound 6 [1]	MBEC-Biofilm Inhibition, with 0.1% salt of compound 6 [1]	MBEC-Biofilm Inhibition, Without compound 1 [1]	MBEC-Biofilm Inhibition, Without compound 2 [1]	MBEC-Biofilm Inhibition, Without compound 3 [1]	MBEC-Biofilm Inhibition, Without compound 6 [1]	MBEC-Biofilm Inhibition, Without compound 7 [1]	MBEC-Biofilm Inhibition, Without compound 9 [1]	MBEC-Biofilm Inhibition, With 0.01% compound 1 in 5% EtOH/PBS [1]	MBEC-Biofilm Inhibition, With 0.01% compound 2 in 5% EtOH/PBS [1, 3]	MBEC-Biofilm Inhibition, With 0.01% compound 7 in 5% EtOH/PBS [1]	MBEC-Biofilm Inhibition, With 0.05% compound 3 in 5% EtOH/PBS [1]	MBEC-Biofilm Inhibition, With 0.05% compound 6 in 5% EtOH/PBS [1]	MBEC-Biofilm Inhibition, With 0.1% w/v compound 9 in PBS [1]	MBEC-Biofilm Elimination, without salt of compound 2 [2]	MBEC-Biofilm Elimination, with 0.1% salt of compound 2 [2]	MBEC-Biofilm Elimination, without salt of compound 6 [2]	MBEC-Biofilm Elimination, with 0.1% salt of compound 6 [2]	further results
NCC[C@H](O)C(=O)N[C@@H]1C[C@H](N)[C@@H](O[C@H]2O[C@H](CN)[C@@H](O)[C@H](O)[C@H]2O)[C@H](O)[C@H]1O[C@H]1O[C@H](CO)[C@@H](O)[C@H](N)[C@H]1O [AK, amikacin]	>8	>8	>8	>8	>8	>8	>8	>8	>8	>8	>8	2-8	>8	>8	>8	>8	>8	8	>8	8	MBEC ([1]; antibiotic or combination alone, concentrations in order of the combination): >8 µg/mL; MBEC, μg/mL +Compound 1 ([1]; antibiotic plus Compound 1): >8 µg/mL; MBEC, μg/mL +Compound 2 ([1]; antibiotic plus Compound 2): >8 µg/mL; MBEC, μg/mL +Compound 7 ([1]; antibiotic plus Compound 7): 2 to 8 µg/mL; (% reduction) +Compound 7 ([1]; reduction of antibiotic or combination required to prevent biofilm formation): > 50%; value in parentheses after MBEC-Biofilm Inhibition with 0.01% compound 2 (% reduction as in Table 2) [1, 3]: ≥ 50; MBEC-Biofilm Elimination, Without compound 1 [2]: >8; MBEC-Biofilm Elimination, Without compound 2 [2]: >8; MBEC-Biofilm Elimination, Without compound 3 [2]: >8; MBEC-Biofilm Elimination, Without compound 6 [2]: >8; MBEC-Biofilm Elimination, Without compound 7 [2]: >8; MBEC-Biofilm Elimination, Without compound 9 [2]: >8; MBEC-Biofilm Elimination, With 0.01% compound 1 in 5% EtOH/PBS [2]: >8; MBEC-Biofilm Elimination, With 0.01% compound 2 in 5% EtOH/PBS [2]: 8; MBEC-Biofilm Elimination, With 0.01% compound 7 in 5% EtOH/PBS [2]: 8; MBEC-Biofilm Elimination, With 0.05% compound 3 in 5% EtOH/PBS [2]: >8; MBEC-Biofilm Elimination, With 0.05% compound 6 in 5% EtOH/PBS [2]: >8; MBEC-Biofilm Elimination, With 0.1% w/v compound 9 in PBS [2]: >8
C[C@H]1[C@H](NC(=O)/C(=N\OC(C)(C)C(=O)O)c2csc(N)n2)C(=O)N1S(=O)(=O)O [AZT, astreonam]	>4	>4	>4	>4	>4	>4	>4	>4	>4	>4	>4	>4	>4	>4	>4	>4	>4	>4	>4	>4	MBEC-Biofilm Elimination, Without compound 1 [2]: >4; MBEC-Biofilm Elimination, Without compound 2 [2]: >4; MBEC-Biofilm Elimination, Without compound 3 [2]: >4; MBEC-Biofilm Elimination, Without compound 6 [2]: >4; MBEC-Biofilm Elimination, Without compound 7 [2]: >4; MBEC-Biofilm Elimination, Without compound 9 [2]: >4; MBEC-Biofilm Elimination, With 0.01% compound 1 in 5% EtOH/PBS [2]: >4; MBEC-Biofilm Elimination, With 0.01% compound 2 in 5% EtOH/PBS [2]: >4; MBEC-Biofilm Elimination, With 0.01% compound 7 in 5% EtOH/PBS [2]: >4; MBEC-Biofilm Elimination, With 0.05% compound 3 in 5% EtOH/PBS [2]: >4; MBEC-Biofilm Elimination, With 0.05% compound 6 in 5% EtOH/PBS [2]: >4; MBEC-Biofilm Elimination, With 0.1% w/v compound 9 in PBS [2]: >4
O=C(N[C@H](CO)[C@H](O)c1ccc([N+](=O)[O-])cc1)C(Cl)Cl [C, chloramphenicol]	>4	>4	>4	>4	>4	>4	>4	>4	>4	>4	>4	>4	>4	>4	>4	>4	>4	>4	>4	>4	MBEC-Biofilm Elimination, Without compound 1 [2]: >4; MBEC-Biofilm Elimination, Without compound 2 [2]: >4; MBEC-Biofilm Elimination, Without compound 3 [2]: >4; MBEC-Biofilm Elimination, Without compound 6 [2]: >4; MBEC-Biofilm Elimination, Without compound 7 [2]: >4; MBEC-Biofilm Elimination, Without compound 9 [2]: >4; MBEC-Biofilm Elimination, With 0.01% compound 1 in 5% EtOH/PBS [2]: >4; MBEC-Biofilm Elimination, With 0.01% compound 2 in 5% EtOH/PBS [2]: >4; MBEC-Biofilm Elimination, With 0.01% compound 7 in 5% EtOH/PBS [2]: >4; MBEC-Biofilm Elimination, With 0.05% compound 3 in 5% EtOH/PBS [2]: >4; MBEC-Biofilm Elimination, With 0.05% compound 6 in 5% EtOH/PBS [2]: >4; MBEC-Biofilm Elimination, With 0.1% w/v compound 9 in PBS [2]: >4
CC(C)(O/N=C(\C(=O)N[C@@H]1C(=O)N2C(C(=O)[O-])=C(C[n+]3ccccc3)CS[C@H]12)c1csc(N)n1)C(=O)O [CAZ, ceftazidime]	>4	>4	>4	>4	>4	>4	>4	>4	>4	>4	>4	>4	>4	>4	>4	>4	>4	>4	>4	>4	MBEC-Biofilm Elimination, Without compound 1 [2]: >4; MBEC-Biofilm Elimination, Without compound 2 [2]: >4; MBEC-Biofilm Elimination, Without compound 3 [2]: >4; MBEC-Biofilm Elimination, Without compound 6 [2]: >4; MBEC-Biofilm Elimination, Without compound 7 [2]: >4; MBEC-Biofilm Elimination, Without compound 9 [2]: >4; MBEC-Biofilm Elimination, With 0.01% compound 1 in 5% EtOH/PBS [2]: >4; MBEC-Biofilm Elimination, With 0.01% compound 2 in 5% EtOH/PBS [2]: >4; MBEC-Biofilm Elimination, With 0.01% compound 7 in 5% EtOH/PBS [2]: >4; MBEC-Biofilm Elimination, With 0.05% compound 3 in 5% EtOH/PBS [2]: >4; MBEC-Biofilm Elimination, With 0.05% compound 6 in 5% EtOH/PBS [2]: >4; MBEC-Biofilm Elimination, With 0.1% w/v compound 9 in PBS [2]: >4
